Assay results reported in US8415299B2, “Methods for improved avian performance” (priority 2004, dated 2013).
Read-outs that look alike come from different tables or passages of the source.

What was measured:
[1] = test system: Cobb broiler breeder hens and roosters; assay type: in vivo; details: for # Eggs per pen: 40 ppm feed from 22-Sep, pen 51
Source text: Molting Cobb Broiler Breeder Hens and Roosters with Dietary Thyroxine.

[2] = test system: 96-week old Hy-Line W-36 White Leghorn hens
Source text: Experiment 3. […] The photoperiod serves as the primary environmental signal that regulates reproductive function in many avian species. Increasing the photoperiod promotes maturation of the gonads and reproductive tract, whereas reducing the photoperiod causes the gonads and reproductive tract to regress and molting to occur.

[3] = 20 mg/kg feed, 8 hr L, Day 30-34
[4] = 20 mg/kg feed, 8 hr L, Days 13-15
[5] = 20 mg/kg feed, 8 hr L, Days 16-22
[6] = 20 mg/kg feed, 17 hr L, Day 30-34
[7] = 20 mg/kg feed, 17 hr L, Days 13-15
[8] = 20 mg/kg feed, 17 hr L, Days 16-22
[9] = 40 mg T4/kg test diet, Chamber 6 (17 hr light)
[10] = 40 mg/kg feed, 8 hr L, Day 30-34
[11] = 40 mg/kg feed, 8 hr L, Days 13-15
[12] = 40 mg/kg feed, 8 hr L, Days 16-22
[13] = 40 mg/kg feed, 17 hr L, Day 30-34
[14] = 40 mg/kg feed, 17 hr L, Days 13-15

N[C@@H](Cc1cc(I)c(Oc2cc(I)c(O)c(I)c2)c(I)c1)C(=O)O [L-thyroxine, 3,5,3′,5′-tetraiodothyronine]
# Eggs per pen ([1]; 15-Oct): 0 | # Eggs per pen ([1]; 16-Oct): 0 | # Eggs per pen ([1]; 16-Sep): 12 | # Eggs per pen ([1]; 17-Oct): 0 | # Eggs per pen ([1]; 17-Sep): 19 | # Eggs per pen ([1]; 18-Oct): 0 | # Eggs per pen ([1]; 18-Sep): 19 | # Eggs per pen ([1]; 19-Oct): 0 | # Eggs per pen ([1]; 19-Sep): 20 | # Eggs per pen ([1]; 20-Oct): 0 | # Eggs per pen ([1]; 20-Sep): 16 | # Eggs per pen ([1]; 21-Oct): 0 | # Eggs per pen ([1]; 21-Sep): 16 | # Eggs per pen ([1]; 22-Oct): 0 | # Eggs per pen ([1]; 22-Sep): 18 | # Eggs per pen ([1]; 23-Oct): 0 | # Eggs per pen ([1]; 23-Sep): 15 | # Eggs per pen ([1]; 24-Oct): 0 | # Eggs per pen ([1]; 24-Sep): 10 | # Eggs per pen ([1]; 25-Oct): 0 | # Eggs per pen ([1]; 25-Sep): 11 | # Eggs per pen ([1]; 26-Oct): 0 | # Eggs per pen ([1]; 26-Sep): 6 | # Eggs per pen ([1]; 27-Oct): 0 | # Eggs per pen ([1]; 27-Sep): 5 | # Eggs per pen ([1]; 28-Oct): 0 | # Eggs per pen ([1]; 28-Sep): 0 | # Eggs per pen ([1]; 29-Oct): 3 | # Eggs per pen ([1]; 29-Sep): 1 | # Eggs per pen ([1]; 30-Oct): 3 | # Eggs per pen ([1]; 30-Sep): 0 | # Eggs per pen ([1]; 31-Oct): 3 | Time to reduced feed intake, ceased egg production and start of feather molt ([1]; Cobb broiler breeder hens on thyroxine treated feed (25 or 40 mg/kg)): 15 to 17 days | Molting ([2]; 20 mg T4/kg groups, either chamber): None of the hens in the Control groups or 20 mg T4/kg groups molted in either chamber | Time within which egg production was significantly reduced ([2]; 20 mg T4/kg, Chamber 6 (17 hr light)): ≤ 8 days | Hen-day egg production ([2]; 20 mg/kg feed 12 d from day 13, 8 hr L, day 30): 6.3% | Feed consumption (FC) [2, 3]: 82.5 g/hen/d | Feed consumption change from days 1-12 (% FCC) [2, 3]: −32.0% | Feed consumption (FC) ([2]; 20 mg/kg feed, 8 hr L, Days 1-12 (pre-treatment)): 121.3 g/hen/d | Feed consumption (FC) [2, 4]: 41.8 g/hen/d | Feed consumption change from days 1-12 (% FCC) [2, 4]: −65.5% | Feed consumption (FC) [2, 5]: 44.5 g/hen/d | Feed consumption change from days 1-12 (% FCC) [2, 5]: −63.3% | Feed consumption (FC) [2, 6]: 135.0 g/hen/d | Feed consumption change from days 1-12 (% FCC) [2, 6]: 11.1% | Feed consumption (FC) ([2]; 20 mg/kg feed, 17 hr L, Days 1-12 (pre-treatment)): 121.5 g/hen/d | Feed consumption (FC) [2, 7]: 58.0 g/hen/d | Feed consumption change from days 1-12 (% FCC) [2, 7]: −52.3% | Feed consumption (FC) [2, 8]: 51.8 g/hen/d | Feed consumption change from days 1-12 (% FCC) [2, 8]: −57.4% | Hens that molted fully ([2]; 40 mg T4/kg Group, Chamber 5 (8 hr light), 7/12): 58% | Loss of initial body weight [2, 9]: approximately 18% | Reduction of feed intake [2, 9]: approximately 65% | Time within which egg production was significantly reduced ([2]; 40 mg T4/kg, Chamber 6 (17 hr light)): ≤ 6 days | Hens that molted fully ([2]; 40 mg T4 kg Group, Chamber 6 (17 hr light)): 100% | Hen-day egg production ([2]; 40 mg/kg feed 12 d from day 13, 17 hr L, day 22): 0.0% | Hen-day egg production ([2]; 40 mg/kg feed 12 d from day 13, 17 hr L, day 24): 0.0% | Hen-day egg production ([2]; 40 mg/kg feed 12 d from day 13, 17 hr L, day 26): 0.0% | Hen-day egg production ([2]; 40 mg/kg feed 12 d from day 13, 17 hr L, day 28): 0.0% | Hen-day egg production ([2]; 40 mg/kg feed 12 d from day 13, 17 hr L, day 30): 0.0% | Hen-day egg production ([2]; 40 mg/kg feed 12 d from day 13, 17 hr L, day 32): 0.0% | Hen-day egg production ([2]; 40 mg/kg feed 12 d from day 13, 17 hr L, day 34): 0.0% | Feed consumption (FC) [2, 10]: 104.8 g/hen/d | Feed consumption change from days 1-12 (% FCC) [2, 10]: −9.5% | Feed consumption (FC) ([2]; 40 mg/kg feed, 8 hr L, Days 1-12 (pre-treatment)): 115.8 g/hen/d | Feed consumption (FC) [2, 11]: 36.8 g/hen/d | Feed consumption change from days 1-12 (% FCC) [2, 11]: −68.2% | Feed consumption (FC) [2, 12]: 35.3 g/hen/d | Feed consumption change from days 1-12 (% FCC) [2, 12]: −69.5% | Feed consumption (FC) [2, 13]: 93.3 g/hen/d | Feed consumption change from days 1-12 (% FCC) [2, 13]: −9.7% | Feed consumption (FC) ([2]; 40 mg/kg feed, 17 hr L, Days 1-12 (pre-treatment)): 103.3 g/hen/d | Feed consumption (FC) [2, 14]: 42.0 g/hen/d | Feed consumption change from days 1-12 (% FCC) [2, 14]: −59.3% | Feed consumption change from days 1-12 (% FCC) ([2]; 40 mg/kg feed, 17 hr L, Days 16-22): −63.7% | Mortality ([2]; 20, 40 mg T4/kg feed 12 days): No mortality occurred in any of the Groups | Time within which egg production was significantly reduced ([2]; 20 and 40 mg T4/kg, Chamber 5 (8 hr light)): ≤ 4 days
